According to patent US10131652B2, “Pyrimidinyloxy benzene derivatives as herbicides” (E. I. DU PONT DE NEMOURS AND COMPANY, priority 2014, dated 2018):

Key:
Test in all cases: Test F pre-/postemergence plant response
Assay type in all cases: in vivo
[1] = tested on: Brazilian crabgrass (Digitaria horizontalis); settings: Digitaria horizontalis, pre-emergence, scale 0 to 100, read-out: Plant response rating, Crabgrass, Brazil
In short: (§1)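 Visual control ratings were scored 0 (no effect) to 100 (complete control) versus untreated plants after 14–21 greenhouse days. Compounds, formulated in a surfactant-containing non-phytotoxic solvent, were applied both to silt loam at planting (preemergence) and to 1- to 4-leaf plants 2–18 cm tall (postemergence).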

[2] = tested on: Italian ryegrass (Lolium multiflorum); settings: Lolium multiflorum, pre-emergence, Preemergence, scale 0 to 100, read-out: Plant response rating, Ryegrass, Italian
In short: as §1

[3] = tested on: barnyardgrass (Echinochloa crus-galli); settings: Echinochloa crus-galli, pre-emergence, scale 0 to 100, read-out: Plant response rating, Barnyardgrass
In short: as §1

[4] = tested on: dayflower (Virginia (VA) dayflower, Commelina virginica); settings: Commelina virginica, pre-emergence, scale 0 to 100, read-out: Plant response rating, Dayflower, VA
In short: as §1

[5] = tested on: green foxtail (Setaria viridis); settings: Setaria viridis, pre-emergence, Preemergence, scale 0 to 100, read-out: Plant response rating, Foxtail, Green
In short: as §1

[6] = tested on: hairy beggarticks (Bidens pilosa); settings: Bidens pilosa, pre-emergence, scale 0 to 100, read-out: Plant response rating, Beggarticks
In short: as §1

[7] = tested on: johnsongrass (Sorghum halepense); settings: Sorghum halepense, pre-emergence, scale 0 to 100, read-out: Plant response rating, Johnsongrass
In short: as §1

[8] = tested on: lambsquarters (Chenopodium album); settings: Chenopodium album, pre-emergence, Preemergence, scale 0 to 100, read-out: Plant response rating, Lambsquarters
In short: as §1

[9] = tested on: large (Lg) crabgrass (Digitaria sanguinalis); settings: Digitaria sanguinalis, pre-emergence, scale 0 to 100, read-out: Plant response rating, Crabgrass, Large
In short: as §1

[10] = tested on: morningglory (Ipomoea coccinea); settings: Ipomoea, pre-emergence, scale 0 to 100, read-out: Plant response rating, Morningglory
In short: as §1

[11] = tested on: nightshade (eastern black nightshade, Solanum ptycanthum); settings: Solanum, pre-emergence, scale 0 to 100, read-out: Plant response rating, Nightshade
In short: as §1

[12] = tested on: ragweed (common ragweed, Ambrosia elatior); settings: Ambrosia artemisiifolia, pre-emergence, scale 0 to 100, read-out: Plant response rating, Ragweed
In short: as §1

[13] = tested on: sandbur (southern sandbur, Cenchrus echinatus); settings: Cenchrus echinatus, pre-emergence, scale 0 to 100, read-out: Plant response rating, Sandbur
In short: as §1

[14] = tested on: waterhemp (common waterhemp, Amaranthus rudis); settings: Amaranthus tuberculatus, pre-emergence, scale 0 to 100, read-out: Plant response rating, Waterhemp
In short: as §1

[15] = tested on: wild poinsettia (Euphorbia heterophylla); settings: Euphorbia heterophylla, pre-emergence, scale 0 to 100, read-out: Plant response rating, Poinsettia, Wild
In short: as §1

[16] = tested on: yellow nutsedge (Cyperus esculentus); settings: Cyperus, pre-emergence, scale 0 to 100, read-out: Plant response rating, Nutsedge, Yellow
In short: as §1

`Fc1cccc(Oc2ncc(Cl)cn2)c1-c1cc(C(F)(F)F)on1` [Compound 168, 5-chloro-2-[2-[5-(trifluoromethyl)-3-isoxazolyl]-3-fluorophenoxy]pyrimidine] was tested, and the pest or weed control at 16 g/ha ([1]; 16 g ai/ha Preemergence) was 65%, the pest or weed control at 31 g/ha ([1]; 31 g ai/ha Preemergence) was 100% and the pest or weed control at 62 g/ha ([1]; 62 g ai/ha Preemergence) was 100%. The pest or weed control at 125 g/ha ([1]; 125 g ai/ha Preemergence) was 100%, the pest or weed control at 16 g/ha ([2]; 16 g ai/ha) was 15% and the pest or weed control at 31 g/ha ([2]; 31 g ai/ha) was 30%. It also gave a pest or weed control at 125 g/ha ([2]; 125 g ai/ha) of 70%, a pest or weed control at 62 g/ha [2] of 65% and a pest or weed control at 16 g/ha ([3]; 16 g ai/ha Preemergence) of 0%. For the same compound, the pest or weed control at 31 g/ha ([3]; 31 g ai/ha Preemergence) was 25%, the pest or weed control at 62 g/ha ([3]; 62 g ai/ha Preemergence) was 80% and the pest or weed control at 125 g/ha ([3]; 125 g ai/ha Preemergence) was 100%. For the same compound, the pest or weed control at 16 g/ha ([4]; 16 g ai/ha Preemergence) was 5%, the pest or weed control at 31 g/ha ([4]; 31 g ai/ha Preemergence) was 10% and the pest or weed control at 62 g/ha ([4]; 62 g ai/ha Preemergence) was 70%. For the same compound, the pest or weed control at 125 g/ha ([4]; 125 g ai/ha Preemergence) was 90%, the pest or weed control at 16 g/ha ([5]; 16 g ai/ha) was 70% and the pest or weed control at 31 g/ha ([5]; 31 g ai/ha) was 100%. The pest or weed control at 125 g/ha ([5]; 125 g ai/ha) was 100%, the pest or weed control at 62 g/ha [5] was 100% and the pest or weed control at 16 g/ha ([6]; 16 g ai/ha Preemergence) was 0%. For the same compound, the pest or weed control at 31 g/ha ([6]; 31 g ai/ha Preemergence) was 0%, the pest or weed control at 62 g/ha ([6]; 62 g ai/ha Preemergence) was 0% and the pest or weed control at 125 g/ha ([6]; 125 g ai/ha Preemergence) was 0%. For the same compound, the pest or weed control at 16 g/ha ([7]; 16 g ai/ha Preemergence) was 0%, the pest or weed control at 31 g/ha ([7]; 31 g ai/ha Preemergence) was 30% and the pest or weed control at 125 g/ha ([7]; 125 g ai/ha Preemergence) was 100%. For the same compound, the pest or weed control at 62 g/ha ([7]; Preemergence) was 35%, the pest or weed control at 16 g/ha ([8]; 16 g ai/ha) was 100% and the pest or weed control at 31 g/ha ([8]; 31 g ai/ha) was 100%. The pest or weed control at 125 g/ha ([8]; 125 g ai/ha) was 100%, the pest or weed control at 62 g/ha [8] was 100% and the pest or weed control at 16 g/ha ([9]; 16 g ai/ha Preemergence) was 65%. It also gave a pest or weed control at 31 g/ha ([9]; 31 g ai/ha Preemergence) of 95%, a pest or weed control at 62 g/ha ([9]; 62 g ai/ha Preemergence) of 98% and a pest or weed control at 125 g/ha ([9]; 125 g ai/ha Preemergence) of 100%. The pest or weed control at 16 g/ha ([10]; 16 g ai/ha Preemergence) was 0%, the pest or weed control at 31 g/ha ([10]; 31 g ai/ha Preemergence) was 0% and the pest or weed control at 125 g/ha ([10]; 125 g ai/ha Preemergence) was 75%. It also gave a pest or weed control at 62 g/ha ([10]; Preemergence) of 15%, a pest or weed control at 16 g/ha ([11]; 16 g ai/ha Preemergence) of 5% and a pest or weed control at 31 g/ha ([11]; 31 g ai/ha Preemergence) of 98%. For the same compound, the pest or weed control at 125 g/ha ([11]; 125 g ai/ha Preemergence) was 98%, the pest or weed control at 62 g/ha ([11]; Preemergence) was 98% and the pest or weed control at 16 g/ha ([12]; 16 g ai/ha Preemergence) was 10%. For the same compound, the pest or weed control at 31 g/ha ([12]; 31 g ai/ha Preemergence) was 35%, the pest or weed control at 125 g/ha ([12]; 125 g ai/ha Preemergence) was 98% and the pest or weed control at 62 g/ha ([12]; Preemergence) was 65%. It also gave a pest or weed control at 16 g/ha ([13]; 16 g ai/ha Preemergence) of 10%, a pest or weed control at 31 g/ha ([13]; 31 g ai/ha Preemergence) of 30% and a pest or weed control at 125 g/ha ([13]; 125 g ai/ha Preemergence) of 90%. It also gave a pest or weed control at 62 g/ha ([13]; Preemergence) of 65%, a pest or weed control at 16 g/ha ([14]; 16 g ai/ha Preemergence) of 100% and a pest or weed control at 31 g/ha ([14]; 31 g ai/ha Preemergence) of 100%. The pest or weed control at 125 g/ha ([14]; 125 g ai/ha Preemergence) was 100%, the pest or weed control at 62 g/ha ([14]; Preemergence) was 100% and the pest or weed control at 16 g/ha ([15]; 16 g ai/ha Preemergence) was 0%. For the same compound, the pest or weed control at 31 g/ha ([15]; 31 g ai/ha Preemergence) was 0%, the pest or weed control at 125 g/ha ([15]; 125 g ai/ha Preemergence) was 90% and the pest or weed control at 62 g/ha ([15]; Preemergence) was 50%. For the same compound, the pest or weed control at 16 g/ha ([16]; 16 g ai/ha Preemergence) was 0%, the pest or weed control at 31 g/ha ([16]; 31 g ai/ha Preemergence) was 0% and the pest or weed control at 125 g/ha ([16]; 125 g ai/ha Preemergence) was 20%. For the same compound, the pest or weed control at 62 g/ha ([16]; Preemergence) was 0%.
